From paper PMC6572184, “New γ-Halo-δ-lactones and δ-Hydroxy-γ-lactones with Strong Cytotoxic Activity” (Molecules, 2019)

What was measured:
Format in all cases: cell-based
[1] = test system: AGS cell lines (human gastric adenocarcinoma); assay: MTT reduction cytotoxicity assay; settings: for mean percentage of viable cells ± SD: 24 h
Description: (§1) Cell cultures: The L929 mouse fibroblasts and human gastric adenocarcinoma cell line AGS were used for in vitro cytotoxicity assays. The cells were maintained under standard conditions (37 ^∘ C, 5% CO 2 ) in 25 cm^2 tissue culture flasks in RPMI-1640 medium supplemented with 10% fetal bovine serum (FBS) and antibiotics: 100 U/mL penicillin and 100 μ g/mL streptomycin. The cell suspension containing 10 ^8 cells in 1 mL, was obtained by treatment of confluent monolayers with 0.25% trypsin solution, washed and subcultured. Cell cultures were supplemented with medium to maintain them in log phase growth. The viability of the cells was assessed by exclusion of trypan blue dye.
(§2) Measurements of cellular metabolic activity and global growth inhibition: L929 cells were seeded into 96-well plates (2 × 10 ^5 cells/well) for 24 h, at 37 ^∘ C, 5% CO2 . Tested compounds 5a–c, 6a–c, 7a–c, 8a–c, 9b,c, 10b,c, 12a and 13a were diluted serially in RPMI-1640 medium in concentrations of 50, 20, 10, 5, 0.5 and 0.1 μ g/mL, added to the cells (100 μ L/well), and incubated under standard conditions for 24 h. The potential harmful effect of lactones on L929 and AGS cells was assessed by the ability of the cells to reduce 3-(4,5-dimethylthiazol-2-yl)-2,5-diphenyltetrazolium bromide (MTT) to formazan. The solution of MTT (5 mg/mL in PBS), was added to each well and the plates were incubated for 4h at 37 ^∘ C. Formazan crystals were dissolved with acidic isopropanol (0.1 M HCl in absolute isopropanol) and the plates were read in a plate reader (Victor 2) at 570 nm. The percentage of MTT reduction was calculated by comparing the absorbance of treated cells to that of untreated control cells. Results are expressed as the mean percentage of viable cells ± standard deviation (SD) of four independent experiments. Statistical significance was accepted at a p-value < 0.05.

[2] = test system: Staphylococcus aureus ATCC 65389; assay: Bactericidal activity, CFU counting method; settings: S. aureus ATCC 65389; for Number of CFU/mL (× 10^7): 18 h at 37 °C, Control 21.36, Control with DMSO 20.85; for less CFU/mL (reduction of the number of CFU/mL): versus control
Description: (§3) The bacterial cultures: Escherichia coli ATCC 8739 and Staphylococcus aureus ATCC 65389 were grown on Luria–Bertani Agar for 18 h at 37 ^∘ C. The strain suspension was prepared in 0.85% saline, with an optical density equivalent to a 0.5 McFarland standard. Next, the following mixtures were prepared: 180 μ L of sterile enriched broth (BTL), 10 μ L of the bacterial suspension and 10 μ L of the tested compound (range 0.1–50 μ g/mL) solubilized in DMSO. As a negative control, only DMSO was added. As a sterility control, 180 μ L of BTL and 20 μ L saline were used. The microtiter plate was incubated at 37 ^∘ C for 18 h. The colony forming unit (CFU) method was used to evaluate the microbial population. The experiment was repeated three times. Gentamicin was used as the reference antibiotic.

[3] = test system: Escherichia coli ATCC 8739; assay: Bactericidal activity, CFU counting method; settings: E. coli ATCC 8739; for Number of CFU/mL (× 10^7): 18 h at 37 °C, Control 9.47, Control with DMSO 9.30
Description: as §3

[4] = test system: L929 cell lines (mouse fibroblasts); assay: MTT reduction cytotoxicity assay; settings: 24 h
Description: as §1, §2

Compound | IC50 [1] | mean percentage of viable cells ± SD ([1]; 0.1 μg/mL) | mean percentage of viable cells ± SD ([1]; 0.5 μg/mL) | mean percentage of viable cells ± SD ([1]; 5 μg/mL) | mean percentage of viable cells ± SD ([1]; 10 μg/mL) | mean percentage of viable cells ± SD ([1]; 20 μg/mL) | mean percentage of viable cells ± SD ([1]; 50 μg/mL) | Number of CFU/mL (× 10^7) [2] | Number of CFU/mL (× 10^7) [3] | mean percentage of viable cells ± SD ([4]; 0.1 μg/mL) | mean percentage of viable cells ± SD ([4]; 0.5 μg/mL) | mean percentage of viable cells ± SD ([4]; 5 μg/mL) | mean percentage of viable cells ± SD ([4]; 10 μg/mL) | mean percentage of viable cells ± SD ([4]; 20 μg/mL) | mean percentage of viable cells ± SD ([4]; 50 μg/mL) | less CFU/mL (reduction of the number of CFU/mL) [2] | less CFU/mL (reduction of the number of CFU/mL) ([3]; versus control)
CC1CC(=O)OC(c2cccc3ccccc23)C1Cl (mixture of isomers) [6a, Cis,trans-5-chloro-tetrahydro-4-methyl-6-(naphthalen-1-yl)pyran-2-one] | 1900 nM | 35 ± 0.06% | 28 ± 0.07% | 23 ± 0.09% | 19 ± 0.01% | 8 ± 0.09% | 8 ± 0.05% | 5.20 × 10^7 CFU/mL | 7.58 × 10^7 CFU/mL | 15 ± 0.03% | 11 ± 0.08% | 9 ± 0.15% | 7 ± 0.07% | 6 ± 0.03% | 2 ± 0.09% | – | –
CC1CC(=O)OC(c2ccccc2)C1Cl (mixture of isomers) [6b, Cis,trans-5-chloro-tetrahydro-4-methyl-6-phenylpyran-2-one] | 4400 nM | 42 ± 0.02% | 35 ± 0.02% | 28 ± 0.03% | 21 ± 0.02% | 14 ± 0.07% | 8 ± 0.06% | 3.58 × 10^7 CFU/mL | 6.32 × 10^7 CFU/mL | 32 ± 0.07% | 27 ± 0.12% | 25 ± 0.02% | 16 ± 0.03% | 4 ± 0.15% | 2 ± 0.05% | 78–83% | –
CC1CC(=O)OC(c2ccc(F)cc2)C1Cl (mixture of isomers) [6c, Cis,trans-5-chloro-6-(4-fluorophenyl)-tetrahydro-4-methylpyran-2-one] | 2900 nM | 49 ± 0.10% | 37 ± 0.05% | 28 ± 0.06% | 16 ± 0.10% | 14 ± 0.07% | 6 ± 0.08% | 7.39 × 10^7 CFU/mL | 2.06 × 10^7 CFU/mL | 24 ± 0.03% | 22 ± 0.05% | 18 ± 0.12% | 9 ± 0.05% | 4 ± 0.08% | 2 ± 0.02% | 83% | 70–78%
CC1CC(=O)OC(c2cccc3ccccc23)C1Br (mixture of isomers) [8a, Cis,trans-5-bromo-tetrahydro-4-methyl-6-(naphthalen-1-yl)pyran-2-one] | 1600 nM | 61 ± 0.10% | 47 ± 0.06% | 39 ± 0.09% | 25 ± 0.05% | 17 ± 0.07% | 9 ± 0.09% | 9.29 × 10^7 CFU/mL | 7.14 × 10^7 CFU/mL | 23 ± 0.03% | 19 ± 0.03% | 14 ± 0.03% | 7 ± 0.06% | 4 ± 0.02% | 1 ± 0.15% | 83% | –
CC1CC(=O)OC(c2ccccc2)C1Br (mixture of isomers) [8b, Cis,trans-5-bromo-tetrahydro-4-methyl-6-phenylpyran-2-one] | 1900 nM | 44 ± 0.15% | 35 ± 0.10% | 31 ± 0.02% | 28 ± 0.09% | 17 ± 0.10% | 11 ± 0.05% | 9.04 × 10^7 CFU/mL | 5.83 × 10^7 CFU/mL | 24 ± 0.03% | 17 ± 0.08% | 15 ± 0.03% | 8 ± 0.05% | 4 ± 0.08% | 1 ± 0.02% | – | –
CC1CC(=O)OC(c2ccc(F)cc2)C1Br (mixture of isomers) [8c, Cis,trans-5-bromo-6-(4-fluorophenyl)-tetrahydro-4-methylpyran-2-one] | 2500 nM | 69 ± 0.15% | 58 ± 0.10% | 43 ± 0.10% | 18 ± 0.07% | 11 ± 0.03% | 10 ± 0.09% | 3.60 × 10^7 CFU/mL | 8.87 × 10^7 CFU/mL | 25 ± 0.03% | 20 ± 0.08% | 15 ± 0.03% | 11 ± 0.03% | 5 ± 0.02% | 1 ± 0.05% | 78–83% | –
CC1CC(=O)OC(c2ccc(F)cc2)C1Cl (stereo not drawn) [5c, Trans,trans-5-chloro-6-(4-fluorophenyl)-tetrahydro-4-methylpyran-2-one] | 600 nM | 54 ± 0.12% | 47 ± 0.12% | 44 ± 0.10% | 34 ± 0.09% | 21 ± 0.08% | 10 ± 0.12% | 14.83 × 10^7 CFU/mL | 9.46 × 10^7 CFU/mL | 26 ± 0.03% | 21 ± 0.15% | 14 ± 0.09% | 10 ± 0.03% | 4 ± 0.06% | 2 ± 0.12% | – | –
CC1CC(=O)OC(c2ccc(F)cc2)C1Br (stereo not drawn) [7c, Trans,trans-5-bromo-6-(4-fluorophenyl)-tetrahydro-4-methylpyran-2-one] | 3500 nM | 63 ± 0.03% | 49 ± 0.06% | 42 ± 0.02% | 25 ± 0.12% | 18 ± 0.10% | 8 ± 0.07% | 6.42 × 10^7 CFU/mL | 6.52 × 10^7 CFU/mL | 27 ± 0.08% | 21 ± 0.08% | 17 ± 0.02% | 11 ± 0.08% | 5 ± 0.05% | 1 ± 0.03% | – | –
